Experimental data as given in article PMC10283505, “CVM-1118 (foslinanib), a 2-phenyl-4-quinolone derivative, promotes apoptosis and inhibits vasculogenic mimicry via targeting TRAP1” (Pathology and Oncology Research, 2023).

Legend:
[1] = test system: DU-145; assay: Cytotoxicity assay (Alamar Blue, 72 h); assay type: cell-based; conditions: Homo sapiens, DU-145 (Prostate)
Procedure: (§1) For cytotoxicity and cell cycle analysis, the following cell lines were used, and their culture conditions were as described: for A549, DU-145, HT-29, MDA-MB-231, Mia PaCa-2, and U118MG, cells were cultured in DMEM containing 10% FCS; for MDA- MB-435 and NCI-ADR-RES, cells were cultured in RPMI-1640 containing 10% FCS, and for SK-N-MC, cells were cultured in MEM containing 10% FCS. For the animal pharmacology study, HCT-116, a colon cancer cell line was tested. Cells were cultured in McCoy’s 5a medium supplemented with 10% heat inactivated fetal bovine serum. For the cell lines used in VM analysis and target identification, C8161 and COLO205 cells were maintained in RPMI-1640 containing 10% FBS and 0.1% gentamycin sulfate. The SKOV3 line was cultured in RPMI-1640 supplemented with 15% FBS and 0.1% gentamycin sulfate. For the SK-MEL28 and MCF-7, cells were maintained in MEM/Earles Salts supplemented with 10% FBS and 0.1% gentamycin sulfate.
(§2) This assay was conducted in ProQinase GmbH (Freiburg, Germany). Nine cancer cell lines (A549, DU-145, HT-29, MDA-MB-231, MDA-MB-435, Mia PaCa-2, NCI-ADR-RES, SK-N-MC, and U118MG) were seeded at 5,000 cells/well in 96-well cell culture plates in 150 µL of complete medium for 24 h prior to treatment. The test compounds CVM-1118 and CVM-1125 were synthesized by China Medical University, Chengdu Chempartner Co., Ltd., and Formosa Laboratories, Inc. To prepare the assay, the compounds were dissolved in 100% DMSO at a concentration of […]. Cells were then treated with vehicle, CVM-1118 or CVM-1125 at various concentrations for 72 h. Cell viability was determined by the fluorescent quantification of Alamar Blue (Invitrogen, Thermo Fisher Scientific). By the end of incubation, Alamar Blue reagent was added to the well for 4 h and the fluorescence was measured at 590 nm. The amount of fluorescence produced is proportional to the number of metabolically active cells. IC50 determination was performed using a variable slope sigmoidal response fitting model with 0% cell growth as a bottom constraint and 100% cell growth as a top constraint (GraphPad Prism, United States).

[2] = test system: U118MG; assay: Cytotoxicity assay (Alamar Blue, 72 h); assay type: cell-based; conditions: Homo sapiens, U-118-MG, U118MG (Glioma)
Procedure: as §1, §2

[3] = test system: SK-N-MC; assay: Cytotoxicity assay (Alamar Blue, 72 h); assay type: cell-based; conditions: Homo sapiens, SK-N-MC (Neuroblastoma)
Procedure: as §1, §2

[4] = test system: MDA-MB-231; assay: Cytotoxicity assay (Alamar Blue, 72 h); assay type: cell-based; conditions: Homo sapiens, MDA-MB-231 (Breast)
Procedure: as §1, §2

[5] = test system: HT-29; assay: Cytotoxicity assay (Alamar Blue, 72 h); assay type: cell-based; conditions: Homo sapiens, HT-29 (Colon)
Procedure: as §1, §2

[6] = test system: Mia PaCa-2; assay: Cytotoxicity assay (Alamar Blue, 72 h); assay type: cell-based; conditions: Homo sapiens, Mia PaCa-2 (Pancreatic)
Procedure: as §1, §2

[7] = test system: NCI-ADR-RES; assay: Cytotoxicity assay (Alamar Blue, 72 h); assay type: cell-based; conditions: Homo sapiens, NCI-ADR-RES (Ovarian)
Procedure: as §1, §2

[8] = test system: A549; assay: Cytotoxicity assay (Alamar Blue, 72 h); assay type: cell-based; conditions: Homo sapiens, A549 (Lung)
Procedure: as §1, §2

[9] = test system: MDA-MB-435; assay: Cytotoxicity assay (Alamar Blue, 72 h); assay type: cell-based; conditions: Homo sapiens, MDA-MB-435 (Melanoma)
Procedure: as §1, §2

[10] = test system: NCI-H460; assay: NCI 60 cytotoxicity screening; assay type: cell-based; conditions: Homo sapiens; NCI-H460, NSCLC
[11] = test system: SK-OV-3; assay: NCI 60 cytotoxicity screening; assay type: cell-based; conditions: Homo sapiens; SK-OV-3, Ovarian
[12] = test system: MOLT-4; assay: NCI 60 cytotoxicity screening; assay type: cell-based; conditions: Homo sapiens; MOLT-4, Leukemia
[13] = Pharmacokinetic study of oral CVM-1118 in mouse (plasma, LC-MS/MS); assay type: in vivo, male CD-1 mice; conditions: for AUC(0-inf) / AUC(0-t) / Cmax / MRT / Tmax / half-life: mouse, analyte in plasma after single oral CVM-1118 30 mg/kg in 9% NaHCO3, fasted male CD-1 mice; for half-life: read-out: T1/2 (terminal half-life) (converted)
Procedure: Supplementary Results on Pharmacokinetic study of oral CVM-1118 in Mouse Method: The pharmacokinetics of CVM-1118 and CVM-1125 were investigated in male CD-1 mice following a single oral administration of CVM-1118 at 30 mg/kg in 9% NaHCO3 in fasted mice. At pre-determined time points, plasma samples were collected and stored at -20°C prior to measurement of CVM-1118 and CVM-1125 concentrations using an LC-MS/MS method. The plasma samples were collected at 0, 0.25, 0.5, 1, 2, 4, 8, 12, 24 and 27 h after dosing with 3 mice per group at each time […]
Result: For single oral administration of 30 mg/kg CVM-1118 in 9% NaHCO3 solution, […]
from CVM-1118 to CVM-1125 occurred very rapidly.
1118 and CVM-1125. The drug exposure (AUC0-inf) of CVM-1118 was low (7 ng·h/mL), indicating rapid conversion to CVM-1125 following oral dosing (AUC0-inf of TRX-818M1 was 287 ng·h/mL). The terminal half-life of CVM-1118 and CVM-1125 were 0.7 h and 8.3 h, respectively. The oral bioavailability of CVM-1118 was low (~3%), […]
1118, was considered favorable.
Mean plasma concentrations-time curves of CVM-1118 and CVM-1125 following a single dose of CVM-1118 in male CD-1 mice
(1 picture or pasted object on this page, not shown here)

[14] = test system: SF-539; assay: NCI 60 cytotoxicity screening; assay type: cell-based; conditions: Homo sapiens; SF-539, CNS
[15] = biological target: Integrin β4 (Homo sapiens, UniProt P16144); assay: Surface plasmon resonance (Biacore); assay type: binding; conditions: Integrin β4, SPR
Chain of Integrin β4 (P16144 28-1822): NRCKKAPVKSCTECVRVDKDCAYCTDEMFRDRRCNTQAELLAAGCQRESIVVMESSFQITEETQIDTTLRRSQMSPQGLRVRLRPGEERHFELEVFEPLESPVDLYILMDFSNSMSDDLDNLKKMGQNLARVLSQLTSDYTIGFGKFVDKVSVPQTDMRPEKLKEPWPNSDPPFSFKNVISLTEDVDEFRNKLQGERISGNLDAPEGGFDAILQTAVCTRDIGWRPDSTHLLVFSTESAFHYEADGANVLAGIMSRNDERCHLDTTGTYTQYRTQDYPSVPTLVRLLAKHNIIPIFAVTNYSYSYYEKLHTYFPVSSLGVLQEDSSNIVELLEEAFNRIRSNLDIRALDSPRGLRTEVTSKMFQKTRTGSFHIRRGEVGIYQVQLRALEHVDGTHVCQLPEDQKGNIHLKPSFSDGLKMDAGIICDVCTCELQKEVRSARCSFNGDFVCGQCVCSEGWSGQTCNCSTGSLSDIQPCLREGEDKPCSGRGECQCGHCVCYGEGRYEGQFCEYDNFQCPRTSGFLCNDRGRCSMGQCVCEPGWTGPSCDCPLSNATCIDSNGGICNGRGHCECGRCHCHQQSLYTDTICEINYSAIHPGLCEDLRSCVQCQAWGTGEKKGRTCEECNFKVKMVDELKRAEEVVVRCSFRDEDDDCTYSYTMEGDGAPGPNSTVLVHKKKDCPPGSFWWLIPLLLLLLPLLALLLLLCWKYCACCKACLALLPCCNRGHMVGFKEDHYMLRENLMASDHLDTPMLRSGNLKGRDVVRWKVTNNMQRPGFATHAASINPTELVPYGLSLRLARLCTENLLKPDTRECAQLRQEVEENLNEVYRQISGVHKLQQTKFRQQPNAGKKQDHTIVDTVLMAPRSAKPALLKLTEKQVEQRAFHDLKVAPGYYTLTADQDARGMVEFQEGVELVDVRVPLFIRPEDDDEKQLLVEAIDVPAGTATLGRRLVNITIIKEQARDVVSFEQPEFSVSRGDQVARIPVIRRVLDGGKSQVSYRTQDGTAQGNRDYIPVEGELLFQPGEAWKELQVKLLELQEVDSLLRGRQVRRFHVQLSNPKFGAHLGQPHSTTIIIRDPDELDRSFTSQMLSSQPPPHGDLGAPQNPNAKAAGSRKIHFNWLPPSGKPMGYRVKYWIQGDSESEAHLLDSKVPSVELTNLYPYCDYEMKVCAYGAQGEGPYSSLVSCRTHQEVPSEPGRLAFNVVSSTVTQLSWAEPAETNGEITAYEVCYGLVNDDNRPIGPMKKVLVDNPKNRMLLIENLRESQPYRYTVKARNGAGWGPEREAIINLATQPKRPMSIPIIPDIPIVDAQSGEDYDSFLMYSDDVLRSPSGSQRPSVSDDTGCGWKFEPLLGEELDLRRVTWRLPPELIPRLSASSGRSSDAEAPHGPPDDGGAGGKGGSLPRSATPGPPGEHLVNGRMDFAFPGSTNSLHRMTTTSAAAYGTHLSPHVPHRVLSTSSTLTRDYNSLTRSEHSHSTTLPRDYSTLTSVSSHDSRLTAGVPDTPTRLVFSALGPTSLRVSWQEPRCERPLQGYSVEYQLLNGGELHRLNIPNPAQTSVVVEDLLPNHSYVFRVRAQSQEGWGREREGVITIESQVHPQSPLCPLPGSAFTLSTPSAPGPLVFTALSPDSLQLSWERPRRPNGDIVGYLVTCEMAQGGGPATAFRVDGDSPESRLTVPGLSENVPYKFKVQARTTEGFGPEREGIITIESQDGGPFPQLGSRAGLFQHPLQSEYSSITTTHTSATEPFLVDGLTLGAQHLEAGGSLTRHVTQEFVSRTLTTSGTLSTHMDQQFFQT

[16] = test system: MCF7; assay: NCI 60 cytotoxicity screening; assay type: cell-based; conditions: Homo sapiens; MCF7, Breast
[17] = test system: EKVX; assay: NCI 60 cytotoxicity screening; assay type: cell-based; conditions: Homo sapiens, NSCLC
[18] = test system: nine selected human cancer cell lines; assay: Cytotoxicity assay, panel of nine selected human cancer cell lines; assay type: cell-based; conditions: all nine cell lines of Table 1
Procedure: as §2

Row | Compound | IC50 [1] [nM] | IC50 [2] [nM] | IC50 [3] [nM] | IC50 [4] [nM] | IC50 [5] [nM] | IC50 [6] [nM] | IC50 [7] [nM] | IC50 [8] [nM] | IC50 [9] [nM] | AUC(0-inf) [13] [ng·h/mL] | AUC(0-t) [13] [ng·h/mL] | Cmax [13] [ng/mL] | MRT [13] [min] | Tmax [13] [min] | half-life [13] [min] | IC50 [18] [nM] | other results
1 | COc1ccc2[nH]c(-c3cccc(F)c3)cc(=O)c2c1O [CVM-1125] | 27 | 8 | 8 | 14 | 17 | 7 | 14 | 29 | 5 | 287 | 279 | 349 | 180 | 15 | 498 | < 50 | GI50 [10]: 32.8 nM; GI50 [11]: 35.6 nM; GI50 [12]: 47.6 nM; GI50 [14]: 26.2 nM; Association (ka) [15]: No dose dependent interaction; Dissociation (kd) [15]: No dose dependent interaction; KD (kd/ka) [15]: No dose dependent interaction; GI50 [16]: 29.9 nM; GI50 [17]: 46.1 nM
2 | COc1ccc2[nH]c(-c3cccc(F)c3)cc(=O)c2c1OP(=O)(O)O [CVM-1118] | 21 | 10 | 9 | 18 | 15 | 11 | 14 | 26 | 4 | 7 | 7 | 21 | 36 | 15 | 42 | < 50 | bioavailability ([13]; male, CD-1, mouse, plasma, po, 30 mg/kg, single oral CVM-1118 30 mg/kg in 9% NaHCO3, fasted male CD-1 mice, read-out: F (oral bioavailability)): ~3%; F (oral bioavailability) ([13]; single oral CVM-1118 30 mg/kg in 9% NaHCO3, fasted male CD-1 mice, 30 mg/kg): 2.96%
